Results taken from BindingDB's records for doi:10.1021/jm2017144 (Universidad De Granada, 2012).

target: Superoxide dismutase [Cu-Zn], SOD1 (Homo sapiens) (UniProt P00441); assay: Inhibition of human erythrocyte Cu-Zn SOD by NBT reduction assay
Sequence (P00441 whole entry, looked up): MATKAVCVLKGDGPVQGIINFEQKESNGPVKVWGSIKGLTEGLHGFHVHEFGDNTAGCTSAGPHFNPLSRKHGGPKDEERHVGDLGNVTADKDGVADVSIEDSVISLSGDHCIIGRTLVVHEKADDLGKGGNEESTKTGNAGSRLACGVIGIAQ

Q: `c1c2n[nH]c1CNCCN1CCNCc3cc(n[nH]3)CNCCN(CCNC2)CCNCc2cc([nH]n2)CNCC1` was tested. Which IC50 did it give?
A: 274 µM

Q: For `Cn1nc2cc1CNCCNCCNCc1cc(n(C)n1)CNCCNCCNC2`, which IC50 is on record?
A: 96.6 µM

Q: How did the IC50 turn out when `c1ccc(Cn2nc3cc2CNCCNCCNCc2cc(n(Cc4ccccc4)n2)CNCCNCCNC3)cc1` was run?
A: 155 µM

Q: `CCCCCCCCN1CCNCc2cc([nH]n2)CNCCN(CCCCCCCC)CCNCc2cc(n[nH]2)CNCC1` was tested. Which IC50 did it give?
A: 89.2 µM
